This note sets out measurements from patent US7129226B2, “Mimetic insect allatostatin analogs for insect control” (The United States of America as represented by the …, priority 1998, dated 2006).

For data set [1], the system named is corpora allata of the cockroach Diploptera punctata (JH biosynthesis). Put plainly: In vitro radiochemical assay of JH biosynthesis/release by corpora allata. Type of data set: cell-based. Particulars: for bioactivity (inhibition of JH biosynthesis): result in words. As to the method: Rates of JH release were determined by the in vitro radiochemical method of Feyereisen and Tobe (Anal. Biochem., 111:372–375, 1981) and as modified by Tobe and Clarke (Tobe and Clarke, Insect Biochem., 15:175–179, 1985). The incorporation of L[^14C—S-methyl]-methionine (50 μM, specific radioactivity 1.48–2.03 GBq/mmol from New England Nuclear or Amersham) into JH III at its penultimate step of biosynthesis by CA incubated in 50 μl TC 199 (GIBCO, 1.3 mM Ca^2+, 2% Ficoll, methionine-free) was used to quantify JH release. Animals were anaesthetized on ice prior to dissection. Corpora allata were dissected directly into non-radioactive medium (only animals with oviposited basal oocytes were used for assay). Samples were dried with nitrogen and resuspended in 10 μl 1N HCl. Radioactive medium was added and neutralized with 10 μl NaOH. Individual CA were transferred from non-radioactive medium to radioactive medium and were incubated for 3 h. The amount of inhibition was expressed as the percent reduction from the untreated rate: [1-(treated rate/untreated rate))] ×100%. Each value represents replicate incubations of a minimum of 8 tests.
D. punctata females mate almost immediately following emergence. Therefore, newly emerged, mated females were transferred each day from the stock culture to an incubator and kept at 27±1° C. The relative humidity was approximately 50% with a 12 hour light:dark cycle. Insects were reared on Purina Lab Chow and water. Mating was confirmed by the presence of a spermatophore. Basal oocyte length was also measured (day 5=1.44–1.68 mm). Only day 5 mated females were utilized for the degradation studies. Day 7 mated females (only with oviposited basal oocytes) were the source of corpora allata for analysis of JH biosynthesis.
Radiochemical assays were conducted as described in Example 1.

Data set [2] in a line: in vitro. Type of data set: in vitro ADME, Diploptera punctata. As to the method: (§1) Day 5 mated female D. punctata were anaesthetized on ice before dissection. Following dissection, tissues were stored in saline (0.9% NaCl pH 7.0–7.2 or cockroach saline; […] at pH 7.2–7.4) on ice. Tissues were cleaned of fat body and trachea and guts were cleaned. Midgut peritrophic membrane was removed, midguts cut open, the guts gently pulled through forceps and then washed 3×. Tissues were stored at −70° C. until sufficient material was collected.
(§2) Hemolymph was collected following the method of King and Tobe (Insect Biochem., 18:793–805, 1988). Hemolymph was diluted 100× with saline.
(§3) Crude membrane preparation or hemolymph was aliquoted into 1.5 ml microcentrifuge tubes for in vitro assay. Dip-AST5 (6 μM) or analog was added to each assay tube from a 1 mM stock solution. Total incubation volume was 500 μl. Tubes were placed on a shaker at room temp for the duration of the incubation time. Incubations were terminated by the addition of 200 μl 30% aqueous TFA. Samples were centrifuged at 10,000 g and the supernatant was applied to a C18 solid phase extraction column. None of the potential, synthetic Dip-AST5 metabolites are lost (unpublished data). The 17–40% acetonitrile fraction was concentrated with a Speed-Vac apparatus and held at −70° C. until HPLC analysis. Samples is were diluted in 0.5 ml 0.1% aqueous TFA, filtered through 0.2 μm micro-spin filters and injected onto the HPLC column. Separation of allatostatins and their catabolites, or analogs and their catabolites, was performed using reversed-phase HPLC (see HPLC methods). When available, retention times of synthetic metabolites were used as a reference to identify endogenous metabolites. Dip-AST5 fragments were synthesized by the Institute for Biosciences and Technology, Dept. of Entomology, Texas A & M University. Dip-ASTs were synthesized by the Core Facility of Insect Biotech Canada (Department of Biochemistry, Queen's University) or obtained from Sigma Chemical Co., St. Louis, Mo. 63178 USA. The identity of fragments resulting from peptidase degradation was also confirmed by FAB mass spectrometry by adding samples in a glycerol medium (1.5 μl) onto a copper probe, followed by bombardment with 8 kV Xe atoms on a Kratos MS-50 mass spectrometer. (Kratos, Manchester, UK).
(§4) Degradation experiments were analyzed by RP-HPLC using a 220×4.6 mm Brownlee Phenyl column (5 μm) on a Spectra-Physics chromatography system with a Spectra-Physics Chromjet integrator and a Spectra-Physics 8490 detector. Following a 5 min wash with 1.5% acetonitrile in 0.1 aqueous TFA, a linear gradient of acetonitrile (15–37.5% in 50 min; 37.5–65% in 5 min) at a flow rate of 0.5 ml/min was used to elute peptides and analogs. […]

For another data set, the system named is hemolymph peptidases. Nature of the data set: in vitro. Conditions: female, Diploptera punctata. The class given is in vitro ADME, Diploptera punctata. As to the method: as §1, §2, §3, §4
Data set [3] is described as follows: in vitro. The class given is in vitro ADME, Diploptera punctata. As to the method:
as §1
(§5) Tissues were pooled and homogenized in saline on ice in microcentrifuge tubes (2.5 ml) for 2 min with an Omni hand held homogenizer. Homogenates were centrifuged at 1000 g for ten min at 4° C. to remove cellular debris. The pellet was discarded. Supernatant was subsequently centrifuged at 30,000 g for 30 min. Pellet (crude membrane preparation) was washed three times in homogenization buffer and resuspended in saline using the Omni homogenizer.
as §3
(§6) Degradation experiments were analyzed by RP-HPLC using a 220×4.6 mm Brownlee Phenyl column (5 μm) on a Spectra-Physics chromatography system with a Spectra-Physics Chromjet integrator and a Spectra-Physics 8490 detector. Following a 5 min wash with 1.5% acetonitrile in 0.1 aqueous TFA, a linear gradient of acetonitrile (15–37.5% in 50 min; 37.5–65% in 5 min) at a flow rate of 0.5 ml/min was used to elute peptides and analogs. Fractions (0.5 ml) were collected each minute during the gradient run.
The source holds these as a separate data set.

The next data set concerns brain peptidases. Nature of the data set: in vitro. Type of data set: in vitro ADME, Diploptera punctata. Conditions: female, tissue homogenate; for half-life at 6 μM: Diploptera punctata. As to the method: as §1, §5, §3, §6
In a further data set the test system is midgut peptidases. Put plainly: in vitro. The class given is in vitro ADME, Diploptera punctata. Conditions: female, tissue homogenate. As to the method:
as §1, §5, §3, §6

Data set [4] can be described thus: Penetration of analog through isolated cockroach cuticle (RPLC of well contents). The class given is in vitro ADME, American cockroach. As to the method:
Adults of the American cockroach were obtained from. colonies at our facility (CMAVE). Animals, anesthetized by submersion in H2O for 30 min, were pinned ventral side up in a wax dissecting dish flooded with water. Lateral incisions along the margins of the abdominal sternites were made between segments 1–7. The epidermal layers including the cuticle and epidermal cells were lifted up and associated tissue was cleared using forceps prior to removal. The epidermal tissue was placed cell side up on a microscope slide and the cells were scraped from the cuticle using a glass cover slip. To further clean the cuticle of cellular debris the tissue was floated, cell side down, in a beaker containing H2O and subjected to sonication in a water bath at 30° C. for 30 min. The cuticle strips were then washed 3× in clean water. Pieces of cuticle, ca. 0.4 cm^2, composed of individual sternites without associated intersegmental membranes were then dissected away from remaining cuticle.
Incubation of cuticle was accomplished using the wells of ELISA plates (Corning, 96 well Easy Wash). […]
Dried samples were reconstituted in 35% acetonitrile (MeCN) (Burdick and Jackson) prior to analysis. […] Data acquired from analyses were reduced and analyzed using NCSS 97 software using regression analysis and T-Tests.

Where [5] appears, read: 3 h in vitro radiochemical assay, single 7-day mated CA, read-out: IC50, half-maximal inhibition of JH release.

pEC50, pIC50: −log10 of the molar value. Like-named read-outs stand apart in the source and are kept apart here. Ends that are not written are not given here. Peptide text beside a SMILES is read from it. carboranyl propanoic acid = 2-o-carboranylpropanoic acid

Usually pIC50 stands for the negative decadic logarithm of the IC50, by convention in mol/L. Broadly, the half-life is the time in which the quantity being followed falls by half. Take `CC(C)C[C@H](NC(=O)C1(NC(=O)[C@H](Cc2ccccc2)NC(=O)[C@H](CC(N)=O)NC(=O)CCc2ccccc2)CC1)C(N)=O` [AST(b)φ2, Hca-Asn-Phe-Cpa-Leu-NH2] (HELM PEPTIDE1{[O=C(CCc1ccccc1)[*:2]].N.F.[O=C(C1(N[*:1])CC1)[*:2]].L.[am]}$$$$V2.0): in data set [1] (setting [5]), the negative logarithm of the IC50 (pIC50) was 5.81. Moreover, in data set [1], the “bioactivity (inhibition of JH biosynthesis)” value is given as “significant biological activity”. Further, in the data set “in vitro [2]”, the “longer half-life than the native neuropeptide Dip-AST5” value is given as 8 fold and the “resistance to degradation by enzymes” value is recorded as “extreme resistance”. For the same compound, the half-life at 6 μM with hemolymph peptidases came to 20.2 h. For the same compound, in the data set “in vitro [3]”, the “longer half-life than the native neuropeptide Dip-AST5” value was determined as 600 fold and the “resistance to midgut peptidases” value was “completely resistant”. Also, in “in vitro [3]” (tissue homogenate), the “Half-life, Midgut” value was “∞”. Moreover, the half-life at 6 μM in the data set on brain peptidases was found to be 180 h.

Regarding `CC(C)C[C@H](NC(=O)CNC(=O)C1(NC(=O)[C@H](CC(N)=O)NC(=O)[C@H](Cc2ccc(O)cc2)NC(=O)[C@@H]2CCCN2C(=O)[C@H](CCCNC(=N)N)NC(=O)[C@H](C)N)Cc2ccccc2C1)C(N)=O` [analog 396-1, Ala-Arg-Pro-Tyr-Asn-Aic-Gly-Leu-NH2] (HELM PEPTIDE1{A.R.P.Y.N.[O=C(C1(N[*:1])Cc2ccccc2C1)[*:2]].G.L.[am]}$$$$V2.0; N-terminus assumed), the pIC50 in data set [1] (read-out: IC50) was 8.67. Further, in data set [1], the “bioactivity (inhibition of JH biosynthesis)” value was “significant bioactivity”. Further, in the data set “in vitro [3]”, the “resistance to cleavage by membrane-bound enzymes” value was “little resistance”. Also, the half-life with brain peptidases worked out at 0.287 h; in the data set on midgut peptidases, 0.377 h.

With `CC(C)C[C@H](NC(=O)C1(NC(=O)[C@H](Cc2ccccc2)NC(=O)[C@H](CC(N)=O)NC(=O)[C@H](Cc2ccc(O)cc2)NC(=O)[C@@H]2CCCN2C(=O)[C@H](CCCNC(=N)N)NC(=O)[C@H](C)N)CC1)C(N)=O` [analog 397-2, Ala-Arg-Pro-Tyr-Asn-Phe-Cpa-Leu-NH2] (HELM PEPTIDE1{A.R.P.Y.N.F.[O=C(C1(N[*:1])CC1)[*:2]].L.[am]}$$$$V2.0; N-terminus assumed), the pIC50 in data set [1] (setting [5]) is 6.76. Also, in data set [1], the “bioactivity (inhibition of JH biosynthesis)” value is recorded as “significant bioactivity”. Moreover, in the data set “in vitro [3]”, the “resistance to cleavage by membrane-bound enzymes” value was “little resistance”. For the same compound, the half-life at 6 μM with brain peptidases stood at 1.01 h; with midgut peptidases (Diploptera punctata), 0.347 h.

Turning to `CC(C)C[C@H](NC(=O)CNC(=O)[C@H](Cc1ccccc1)NC(=O)[C@H](CC(N)=O)NC(=O)[C@H](Cc1ccc(O)cc1)NC(=O)CC1c2ccccc2-c2ccccc21)C(N)=O` [analog 525] (HELM PEPTIDE1{[O=C(CC1c2ccccc2-c2ccccc21)[*:2]].Y.N.F.G.L.[am]}$$$$V2.0), in data set [4] (0.5 nmol applied to cuticle, rate stabilized after six hours), the “release rate through the cuticle” value is listed as “about 1.5 pmol/h”. The “penetration of the cuticle” value in data set [4] (cockroach cuticle, result in words) is listed as “penetrated the cuticle effectively”.

On to “DRLYSFGL-NH2 [Dip-AST5, reference compound]”, for which the pIC50 in data set [1] (setting [5]) and in data set [1] (read-out: IC50) was 8.51 each time. The same compound gave a half-life at 6 μM in “in vitro [2]” (female, Diploptera punctata) of 2.55 h.

On to “carboranyl propanoic acid-Ser-Phe-Gly-Leu-NH2 ({carboranyl propanoic acid}-SFGL-NH2)”, for which, in data set [1] (in another assay, read-out: activity (ED50)), the pEC50 was 9.19.
